This test deals with T1, human membrane progestin receptor α (hmPRα) (Homo sapiens, UniProt Q86WK9).
T1 sequence (Q86WK9 1-346): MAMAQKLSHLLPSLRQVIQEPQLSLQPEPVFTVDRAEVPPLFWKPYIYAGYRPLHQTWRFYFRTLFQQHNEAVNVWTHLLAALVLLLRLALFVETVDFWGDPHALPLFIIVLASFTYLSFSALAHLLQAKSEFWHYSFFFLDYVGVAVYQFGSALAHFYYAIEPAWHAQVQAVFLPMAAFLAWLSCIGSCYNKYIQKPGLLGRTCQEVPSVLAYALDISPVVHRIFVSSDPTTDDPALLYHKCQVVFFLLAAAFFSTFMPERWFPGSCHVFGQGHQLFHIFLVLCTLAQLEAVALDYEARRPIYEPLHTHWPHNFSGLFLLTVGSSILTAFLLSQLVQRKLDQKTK
Description: GQD-hmPRα fluorescence competition with P4-BSA-FITC. It is filed as binding.

We go through two molecules from PMC12901071 (Scientific Reports, 2026).

As a reminder, the IC50 is the concentration that inhibits the measured activity by half. Higher therefore signals lower potency.

Consider `CC(=O)[C@H]1CC[C@H]2[C@@H]3CCC4=CC(=O)CC[C@]4(C)[C@H]3CC[C@]12C` [progesterone], for which the IC50 turned out to be 1.9 µM.

On to `CCCC(O)C(=O)OC(CCC)C(=O)O` (centres unmarked) [1-CB 2-HPNA, 1-carboxybutyl 2-hydroxypentanoate], for which the IC50 was found to be 1.26 µM.
